# Source: US11813306B2, “Cyclic tetramer compounds as proprotein convertase subtilisin/kexin type 9 (PCSK9) inhibitors for the treatment of metabolic disorders” (NOVARTIS AG, priority 2018, dated 2023)
# Target: human PCSK9 (Homo sapiens, UniProt Q8NBP7)
# Assay: PCSK9 ligand binding assay (TR-FRET): interference with binding of human PCSK9 to human LDLR
# Conditions: for IC50: Human PCSK9 Alexa Fluor 647 / Human LDLR extracellular domain-Europium Kryptate; for Max % inhibition: efficacy (Amax), 100% = 1 uM unlabeled human PCSK9, 0% = DMSO
# Summary of the method: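 Read-out was TR-FRET ratio (665 nm over 615 nm, 330 nm excitation) between Alexa Fluor 647-human PCSK9 (16 nM added) and Europium Kryptate-human LDLR ectodomain (4 nM added). Compound and PCSK9 were mixed 30 min before LDLR, then incubated 2 h. Inhibition was normalised to DMSO and unlabelled-PCSK9 controls, giving IC50 and Amax.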
# Sequence of human PCSK9 (Q8NBP7 153-692): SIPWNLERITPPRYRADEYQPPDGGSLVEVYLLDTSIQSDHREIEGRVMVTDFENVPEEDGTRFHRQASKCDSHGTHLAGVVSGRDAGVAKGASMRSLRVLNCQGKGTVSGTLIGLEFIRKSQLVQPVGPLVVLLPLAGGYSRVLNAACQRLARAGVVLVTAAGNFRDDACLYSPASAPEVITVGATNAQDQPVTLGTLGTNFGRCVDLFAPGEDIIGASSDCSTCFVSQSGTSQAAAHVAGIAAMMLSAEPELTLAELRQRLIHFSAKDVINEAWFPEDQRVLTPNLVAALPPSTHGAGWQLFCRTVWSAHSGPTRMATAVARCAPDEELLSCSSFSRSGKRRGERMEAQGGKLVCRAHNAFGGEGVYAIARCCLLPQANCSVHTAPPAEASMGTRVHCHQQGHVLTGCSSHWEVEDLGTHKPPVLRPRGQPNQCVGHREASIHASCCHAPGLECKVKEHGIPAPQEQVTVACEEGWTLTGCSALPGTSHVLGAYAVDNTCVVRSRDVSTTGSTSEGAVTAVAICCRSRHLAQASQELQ
# Sequence of human PCSK9 (Q8NBP7 31-152 partner limits assumed): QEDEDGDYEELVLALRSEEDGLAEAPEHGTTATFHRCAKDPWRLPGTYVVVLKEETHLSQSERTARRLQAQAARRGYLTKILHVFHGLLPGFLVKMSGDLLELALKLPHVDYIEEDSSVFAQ
SMILES,IC50 [nM],Max % inhibition [%]
"COC[C@@H]1NC(=O)[C@H](C)N(Cc2ccc(Cl)cc2Oc2ccc(-c3cnc(CN4CCCC4)n3C)cc2)C(=O)C[C@@H]([C@H]2CC(C)(C)c3ccccc32)C(=O)N(C)C[C@@H](Cc2ccc(Cl)cc2)N(C)C1=O.Cl [Compound 111, (2S, 5S, 8R, 12S)-1-(4-chloro-2-(4-(1-methyl-2-(pyrrolidin-1-ylmethyl)-1H-imidazol-5-yl)phenoxy)benzyl)-8-(4-chlorobenzyl)-12-((R)-3,3-dimethyl-2,3-dihydro-1H-inden-1-yl)-5-(methoxymethyl)-2,7,10-trimethyl-1,4,7,10-tetraazacyclotetradecane-3,6,11,14-tetraone]",11.4,102.4
"COC[C@@H]1NC(=O)[C@H](C)N(Cc2ccc(Cl)cc2Oc2ccc(-c3cnc(CN(C)C)n3C)nc2)C(=O)C[C@@H](Cc2ccccc2)C(=O)N2CCC[C@@](Cc3ccc(Cl)cc3)(C2)NC1=O [Compound 52, (3R, 7S, 10S, 13R)-3-benzyl-6-(4-chloro-2-((6-(2-((dimethylamino)methyl)-1-methyl-1H-imidazol-5-yl)pyridin-3-yl)oxy)benzyl)-13-(4-chlorobenzyl)-10-(methoxymethyl)-7-methyl-1,6,9,12-tetraazabicyclo[11.3.1]heptadecane-2,5,8,11-tetraone]",0.61,112.5
"COC[C@@H]1NC(=O)[C@H](C)N(Cc2ncc(Cl)cc2Oc2ccc(-c3cnc(CN(C)C)n3C)cc2)C(=O)C[C@@H](Cc2ccccc2)C(=O)N2CCC[C@@](Cc3ccc(Cl)cc3)(C2)NC1=O [Compound 17, (3R, 7S, 10S, 13R)-3-benzyl-6-((5-chloro-3-(4-(2-((dimethylamino)methyl)-1-methyl-1H-imidazol-5-yl)phenoxy)pyridin-2-yl)methyl)-13-(4-chlorobenzyl)-10-(methoxymethyl)-7-methyl-1,6,9,12-tetraazabicyclo[11.3.1]heptadecane-2,5,8,11-tetraone]",0.327,102.6
"C[C@H]1C[C@H]([C@@H]2CC(=O)N(Cc3ccc(Cl)cc3Oc3ccc(-c4cnc(CN(C)C)n4C)cc3)[C@@H](C)C(=O)N[C@@H](CO)C(=O)N(C)[C@H](Cc3ccc(Cl)cc3)CN(C)C2=O)c2ccccc21.Cl [Compound 81, (2S, 5S, 8R, 12S)-1-(4-chloro-2-(4-(2-((dimethylamino)methyl)-1-methyl-1H-imidazol-5-yl)phenoxy)benzyl)-8-(4-chlorobenzyl)-5-(hydroxymethyl)-2,7,10-trimethyl-12-((1R,3S)-3-methyl-2,3-dihydro-1H-inden-1-yl)-1,4,7,10-tetraazacyclotetradecane-3,6,11,14-tetraone]",0.95,105.6
"CC[C@@H]1CC(=O)N(Cc2ccc(Cl)cc2Oc2ccc(-c3cnc(CN4CCCC4)n3C)cc2)[C@@H](C)C(=O)N[C@@H](CO)C(=O)N[C@@]2(Cc3ccc(Cl)cc3)CCCN(C2)C1=O [Compound 26, (3R, 7S, 10S, 13R)-6-(4-chloro-2-(4-(1-methyl-2-(pyrrolidin-1-ylmethyl)-1H-imidazol-5-yl)phenoxy)benzyl)-13-(4-chlorobenzyl)-3-ethyl-10-(hydroxymethyl)-7-methyl-1,6,9,12-tetraazabicyclo[11.3.1]heptadecane-2,5,8,11-tetraone]",0.48,98.3
"C[C@H]1C(=O)N[C@@H](CO)C(=O)N(C)[C@@]2(Cc3ccc(Cl)cc3)CCCN(C2)C(=O)[C@H](Cc2ccccn2)CC(=O)N1Cc1c(F)cc(Cl)cc1Oc1ccc(-c2cnc(CN(C)C)n2C)cc1 [Compound 32, (3R,7S,10S,13R)-6-(4-Chloro-2-(4-(2-((dimethylamino)methyl)-1-methyl-1H-imidazol-5-yl)phenoxy)-6-fluorobenzyl)-13-(4-chlorobenzyl)-10-(hydroxymethyl)-7,12-dimethyl-3-(pyridin-2-ylmethyl)-1,6,9,12-tetraazabicyclo[11.3.1]heptadecane-2,5,8,11-tetraone]",0.447,105.8
COC[C@@H]1NC(=O)[C@H](C)N(Cc2ncc(Cl)cc2Oc2ccc(-c3cnc(CN(C)C)n3C)nc2)C(=O)C[C@@H](Cc2ccccc2)C(=O)N2CCC[C@@](Cc3ccc(Cl)cc3)(C2)N(C)C1=O [Compound 85],1.41,101.7
"Cc1cccc(C[C@@H]2CC(=O)N(Cc3c(F)cc(Cl)cc3Oc3ccc(-c4cnc(CN(C)C)n4C)cc3)[C@@H](C)C(=O)N[C@@H](CO)C(=O)N(C)[C@@]3(Cc4ccc(Cl)cc4)CCCN(C3)C2=O)n1 [Compound 170, (3R,7S,10S,13R)-6-(4-chloro-2-(4-(2-((dimethylamino)methyl)-1-methyl-1H-imidazol-5-yl)phenoxy)-6-fluorobenzyl)-13-(4-chlorobenzyl)-10-(hydroxymethyl)-7,12-dimethyl-3-((6-methylpyridin-2-yl)methyl)-1,6,9,12-tetraazabicyclo[11.3.1]heptadecane-2,5,8,11-tetraone]",0.73,115.0
COC[C@@H]1NC(=O)[C@H](C)N(Cc2c(F)cc(Cl)cc2Oc2ccc(-c3cnc(CN(C)C)n3C)nc2)C(=O)C[C@@H](CC(F)(F)F)C(=O)N2CCC[C@@](Cc3ccc(Cl)cc3)(C2)N(C)C1=O [Compound 173],1.37,107.7
"C[C@H]1C(=O)N[C@@H](CO)C(=O)N[C@@]2(Cc3ccc(Cl)cc3)CCCN(C2)C(=O)[C@H](Cc2ccccc2)CC(=O)N1Cc1cc(F)c(Cl)cc1Oc1ccc(-c2cnc(CN(C)C)n2C)cc1 [Compound 54, (3R, 7S, 10S, 13R)-3-benzyl-6-(4-chloro-2-(4-(2-((dimethylamino)methyl)-1-methyl-1H-imidazol-5-yl)phenoxy)-5-fluorobenzyl)-13-(4-chlorobenzyl)-10-(hydroxymethyl)-7-methyl-1,6,9,12-tetraazabicyclo[11.3.1]heptadecane-2,5,8,11-tetraone]",0.624,109.4
"COC[C@@H]1NC(=O)[C@H](C)N(Cc2ccc(Cl)cc2Oc2ccc(-c3cnc(CN4CCN(C)CC4)n3C)cc2)C(=O)C[C@@H](Cc2ccccc2)C(=O)N2CCC[C@@](Cc3ccc(Cl)cc3)(C2)NC1=O.Cl [Compound 76, (3R, 7S, 10S, 13R)-3-benzyl-6-(4-chloro-2-(4-(1-methyl-2-((4-methylpiperazin-1-yl)methyl)-1H-imidazol-5-yl)phenoxy)benzyl)-13-(4-chlorobenzyl)-10-(methoxymethyl)-7-methyl-1,6,9,12-tetraazabicyclo[11.3.1]heptadecane-2,5,8,11-tetraone]",0.81,101.7

# More lines, in order of falling IC50, values ahead:
IC50 [nM],Max % inhibition [%],SMILES
2.08,91.2,"C[C@@H](O)[C@@H]1NC(=O)[C@H](C)N(Cc2ccc(Cl)cc2Oc2ccc(-c3cnc(CN(C)C)n3C)cc2)C(=O)C[C@@H](CC(F)(F)F)C(=O)N2CCC[C@@](Cc3ccc(Cl)cc3)(C2)NC1=O [Compound 97, (3S, 7S, 10S, 13R)-6-(4-chloro-2-(4-(2-((dimethylamino)methyl)-1-methyl-1H-imidazol-5-yl)phenoxy)benzyl)-13-(4-chlorobenzyl)-10-((R)-1-hydroxyethyl)-7-methyl-3-(2,2,2-trifluoroethyl)-1,6,9,12-tetraazabicyclo[11.3.1]heptadecane-2,5,8,1-tetraone]"
0.819,108.3,"C[C@H]1C(=O)N[C@@H](CO)C(=O)N(C)[C@@]2(Cc3ccc(Cl)cc3)CCCN(C2)C(=O)[C@H](Cc2ccccc2)CC(=O)N1Cc1c(F)cc(Cl)cc1Oc1ccc(-c2cnc(CN(C)C)n2C)cc1 [Compound 79, (3R, 7S, 10S, 13R)-3-benzyl-6-(4-chloro-2-(4-(2-((dimethylamino)methyl)-1-methyl-1H-imidazol-5-yl)phenoxy)-6-fluorobenzyl)-13-(4-chlorobenzyl)-10-(hydroxymethyl)-7,12-dimethyl-1,6,9,12-tetraazabicyclo[11.3.1]heptadecane-2,5,8,11-tetraone]"
0.742,96.0,"C[C@H]1C(=O)N[C@@H](CO)C(=O)N[C@@]2(Cc3ccc(Cl)cc3)CCCN(C2)C(=O)[C@H]([C@@H]2CCc3ccccc32)CC(=O)N1Cc1ccccc1Oc1ccc(-c2cnc(CN(C)C)n2C)cc1 [Compound 55, (3S,7S,10S,13R)-13-(4-chlorobenzyl)-3-((S)-2,3-dihydro-1H-inden-1-yl)-6-(2-(4-(2-((dimethylamino)methyl)-1-methyl-1H-imidazol-5-yl)phenoxy)benzyl)-10-(hydroxymethyl)-7-methyl-1,6,9,12-tetraazabicyclo[11.3.1]heptadecane-2,5,8,11-tetraone]"
0.71,104.6,"C[C@H]1C(=O)N[C@@H](CO)C(=O)N[C@@]2(Cc3ccc(Cl)cc3)CCCN(C2)C(=O)[C@H](CC2CC2)CC(=O)N1Cc1c(F)cc(Cl)cc1Oc1ccc(-c2cnc(CNC(C)(C)C)n2C)cc1 [Compound 154, (3R, 7S, 10S, 13R)-6-(2-(4-(2-((tert-butylamino)methyl)-1-methyl-1H-imidazol-5-yl)phenoxy)-4-chloro-6-fluorobenzyl)-13-(4-chlorobenzyl)-3-(cyclopropylmethyl)-10-(hydroxymethyl)-7-methyl-1,6,9,12-tetraazabicyclo[11.3.1]heptadecane-2,5,8,11-tetraone]"
0.556,105.9,"Cc1cccc(C[C@@H]2CC(=O)N(Cc3ccc(Cl)cc3Oc3ccc(-c4cnc(CN(C)C)n4C)cc3)[C@@H](C)C(=O)N[C@@H](CO)C(=O)N[C@@]3(Cc4ccc(Cl)cc4)CCCN(C3)C2=O)n1 [Compound 41, (3R, 7S, 10S, 13R)-6-(4-chloro-2-(4-(2-((dimethylamino)methyl)-1-methyl-1H-imidazol-5-yl)phenoxy)benzyl)-13-(4-chlorobenzyl)-10-(hydroxymethyl)-7-methyl-3-((6-methylpyridin-2-yl)methyl)-1,6,9,12-tetraazabicyclo[11.3.1]heptadecane-2,5,8,11-tetraone]"
